Data reported in paper PMC12557367, ““Precision on Two Wheels”–Structural Refinement of ^64Cu- and ^68Ga-Labeled Bicyclic Peptides Targeting Nectin‑4 for Improved Tumor Imaging: From Preclinical Development to First-in-Human Application” (Journal of Medicinal Chemistry, 2025).
Numbered stars: 1 amine (or outer) side, 2 acyl side, 3 side chain; on linkers, the order of the positions; unused ones are H or OH. Bridge positions count the residues as written; N and C are the ends. Square brackets hold non-standard residues; d marks the D form. Peptide text beside a SMILES is read from it. * marks the point of attachment. TATA = O=C(CC[*:1])N1CN(C(=O)CC[*:2])CN(C(=O)CC[*:3])C1; X1 = O=C(O)CN1CCN(CC(=O)O)CCN([C@H](CCC(=O)*)C(=O)O)CC1; 1Nal = N[C@@H](Cc1cccc2ccccc12)C(=O)O; 2Nal = N[C@@H](Cc1ccc2ccccc2c1)C(=O)O; Hyp = O=C(O)[C@@H]1C[C@@H](O)CN1; hArg = N=C(N)NCCCC[C@H](N)C(=O)O; SeMet = C[Se]CC[C@H](N)C(=O)O; hSer = N[C@@H](CCO)C(=O)O

Assays:
[1] = Small animal PET/CT imaging; set-up: species or system mice; settings: mouse, in vivo, TAC for heart, two-phase decay
Summary of the method: (§1)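 NMRI nude mice bore subcutaneous HT-1376 xenografts (5 × 10^6 cells in 50% Matrigel), imaged at ~200 mm^3 tumour volume. Radioligand (molar activity 25 MBq/nmol; ~9 MBq, ≈0.46 nmol) injected i.v. via tail vein, with 75 nmol blocking substance co-injected for blocking; dynamic 2 h PET from injection plus CT for attenuation correction.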

[2] = Oxidation stability in H2O2 (radio-HPLC)
Procedure: To avoid a too rapid degradation of radiolabeled peptides, a low H2O2 concentration of 0.0012% was chosen. […] In this context, there are three further thioether functionalities in each peptide due to the cyclization of the Cys residues with TATA. In Figure , the curves for the time-dependent degradation of the intact radioligands are depicted, from which the respective half-lives were calculated.
The stability toward oxidizing conditions was assessed with H2O2. For this purpose, the radioligands (2 nmol, 48 μL of labeling mixture) were treated with H2O2 (2 μL of 0.03%, final concentration of 0.0012%) at ambient temperature. At distinct time points (3, 5, and 7 h), an aliquot of 2 μL was withdrawn and diluted with 48 μL of a mixture named “Supersol,” which consists of 20% ethanol, 0.5% Triton X-100, 5 mM EDTA, 0.5 mM o-phenanthroline, and 0.1% saponin. […] The resulting solutions were analyzed by radio-HPLC (same system as that used for analyzing the ^64Cu-labelings).

[3] = molecular target: human serum albumin (HSA) (Homo sapiens, UniProt P02768); type: in vitro ADME
human serum albumin (HSA), sequence (P02768 25-609): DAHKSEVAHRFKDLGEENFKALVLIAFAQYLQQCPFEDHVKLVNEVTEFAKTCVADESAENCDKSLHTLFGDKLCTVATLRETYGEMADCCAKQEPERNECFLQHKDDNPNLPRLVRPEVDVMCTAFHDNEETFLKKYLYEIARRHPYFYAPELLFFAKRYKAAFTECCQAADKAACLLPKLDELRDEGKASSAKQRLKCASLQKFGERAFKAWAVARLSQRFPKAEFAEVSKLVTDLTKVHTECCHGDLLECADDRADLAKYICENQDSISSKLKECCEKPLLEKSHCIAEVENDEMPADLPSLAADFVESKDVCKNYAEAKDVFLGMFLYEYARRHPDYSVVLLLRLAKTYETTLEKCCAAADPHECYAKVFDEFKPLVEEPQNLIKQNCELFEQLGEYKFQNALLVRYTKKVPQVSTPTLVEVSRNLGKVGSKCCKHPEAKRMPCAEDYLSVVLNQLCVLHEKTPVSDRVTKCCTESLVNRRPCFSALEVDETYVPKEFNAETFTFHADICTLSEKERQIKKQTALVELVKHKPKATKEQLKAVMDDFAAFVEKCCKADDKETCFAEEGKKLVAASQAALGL
From the text: page 20: S20 Figure S11: Assessment of plasma protein and HSA binding for [64Cu]Cu-1e and [64Cu]Cu-4 by ultrafiltration […] PBS), and undiluted human plasma. B) Plot of “percentage of retained activity in filter” = f([HSA]) for [64Cu]Cu-4 with nonlinear regression according to the Morrison equation ( total […] labeling). For details on the experimental method and regression analysis see ref. 1. PBS HSA Plasma 0% 20% 40% 60% 80% 47 64 50 percentage of retained activity in filter 102 103 104 105 106 107 0 20 40 60 80 100 [HSA] (nM) percentage of retained activity in filter […] A B (1 picture or pasted object on this page, not shown here)

[4] = system: HT-1376-derived tumor xenograft model; experiment: Small animal PET/CT imaging; set-up: species or system mice; settings: mouse, in vivo
Summary of the method: as §1

[5] = molecular target: T1, immobilized human nectin-4 (Homo sapiens, UniProt Q96NY8); experiment: SPR analysis of binding kinetics; settings: ±SEM; for kon: HBS-P+ pH 7.4, 25 °C, read-out: k on (SPR, *10^6 M^–1 s^–1); for koff: pH 7.4, HBS-P+ pH 7.4, 25 °C, read-out: k off (SPR, *10^–3 s^–1)
T1 construct: close to the value determined for the complete extracellular domain of nectin-4 (0.94 nM); purchased R&D Systems 2659-N4
T1 sequence (Q96NY8 32-349 limits assumed): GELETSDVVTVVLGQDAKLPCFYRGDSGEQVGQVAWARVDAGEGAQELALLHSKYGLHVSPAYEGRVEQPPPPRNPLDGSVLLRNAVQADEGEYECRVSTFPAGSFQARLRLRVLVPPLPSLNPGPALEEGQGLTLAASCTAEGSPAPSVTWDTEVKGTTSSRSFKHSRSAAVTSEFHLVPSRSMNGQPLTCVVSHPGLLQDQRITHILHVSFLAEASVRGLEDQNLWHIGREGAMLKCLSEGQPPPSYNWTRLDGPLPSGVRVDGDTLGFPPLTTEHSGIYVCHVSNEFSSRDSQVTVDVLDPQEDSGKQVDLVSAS
Procedure: For this purpose, recombinant human nectin-4 was covalently immobilized on a CM5 sensor chip by EDC/NHS coupling. For analyses, the buffer composition (HBS-P+, pH 7.4) was similar to that of the FA assay; however, DMSO was completely omitted (1% DMSO for the FA assay).
The SPR analyses were carried out on a Biacore T200 (GE Healthcare, Chicago, IL, USA) at 25 °C using CM5 sensor chips (Cytiva) and HBS-P+ as running buffer (Cytiva) at a flow of 30 μL/min unless otherwise specified and a data collection rate of 10 Hz. All flow cells (FC) were normalized, and functionalization was performed using an amine coupling Kit (Cytiva). […] Binding analyses were performed by a single-cycle kinetic on both FC. Two start-up cycles were performed at the beginning of each experimental set, comprising the injection of bicyclic peptide (50 nM) and analysis on both FC, followed by regeneration. Binding analysis for the bicyclic peptides was performed by consecutive injection of five increasing concentrations (120 s contact time for each concentration), followed by 600 s dissociation time and analysis on both FC. The regeneration was performed by sequential injection of 10 mM NaOAc (pH 5.5) for 60 s, washing the needle using HBS-P+, injection of 10 mM NaOAc (pH 5.5) for 60 s, 600 s waiting, four injections of HBS-P+ (60 s), and a final 600 s waiting for stabilization. Blank runs using only buffer (HBS-P+) instead of the sample were carried out to obtain double-referenced chromatograms. Binding analyses were performed unless otherwise stated in a concentration range between 0.16–100 nM and 1.6–1000 nM (5-fold dilution series) and analyzed in triplicate. The data were analyzed using the Biacore Evaluation software 3.2.1. […] Data were fitted to a 1:1 binding model.

[6] = molecular target: T2, recombinant human nectin-4 (Homo sapiens, UniProt Q96NY8); experiment: FA-based competitive binding assay with probe 1a; settings: for Hill coefficient n: competitive binding curve, variable slope
T2 construct: close to the value determined for the complete extracellular domain of nectin-4 (0.94 nM); purchased R&D Systems 2659-N4
T2 sequence (Q96NY8 32-349 limits assumed): T1 sequence (Q96NY8 32-349 limits assumed)

[7] = Chromatographic hydrophobicity index at immobilized artificial membrane (CHI IAM7.4) by HPLC; type: physicochemical; settings: nonlabeled peptide, pH 7.4
Procedure: Consequently, the CHI IAM7.4 values indicate that unfavorable pharmacokinetic behavior due to nonspecific binding is not to be expected.
All commercial reagents and solvents were used without further purification, unless otherwise specified. […] The purity of compound 5, which bears selenomethionine, was lower due to the lability to oxidation (as discussed above). The HPLC-based determination of chromatographic hydrophobicity indices at an immobilized artificial membrane was performed as previously described according to the method developed by Valko et al.

[8] = n-Octanol/PBS distribution coefficient (logD 7.4); type: physicochemical
Procedure: The determination of logD 7.4 was performed in triplicate. A sample of the ^64Cu/^68Ga-labeled compound containing ≈1 MBq in a volume of 1 μL was added to a 1.5 mL Eppendorf tube containing 400 μL of PBS (pH 7.4) and 400 μL of n-Octanol (the phases were presaturated with each other). The tube was vortexed vigorously for 1 min and then centrifuged at 16,100g for 4 min to separate the phases. For sampling from the aqueous phase, the pipette tip was discharged while passing through the octanol layer. Then, the sample was taken within the aqueous phase. Any residual liquid was carefully removed by moving the tip along the inner wall of an Eppendorf tube. The radioactivity in a defined volume of each layer was measured (ISOMED 2100). The distribution coefficient was expressed as the logarithm of the ratio of counts per minute (cpm) measured in the n-Octanol phase to the cpm measured in the PBS phase.

HT-1376 cells = experiment: Saturation binding assay on intact cells; type: cell-based, human; settings: ^64Cu-labeled ligand, intact HT-1376 cells, 60 min, PBS wash; apparent; ±SD
Procedure: For the saturation binding assay, total and nonspecific binding were determined as described above using 10 different radioligand concentrations ([…]) prepared by serial 1:1 dilution. Plots of “total binding” = f(radioligand) were analyzed by nonlinear regressions using the model of “one site-total, accounting for ligand depletion” as implemented in GraphPad Prism, and Plots of “nonspecific binding” = f(radioligand) were analyzed by linear regressions.

Row | kon [5] | koff [5] | Hill coefficient n [6] | CHI IAM7.4 [7] | SMILES | time of highest tumor uptake [4] | binding to HSA or other plasma proteins [3] | also measured
1 | – | – | – | – | COCC[C@@H]1NC(=O)[C@@H]2CSCCC(=O)N3CN(CN(C3)C(=O)CCSC[C@H](NC(=O)CC[C@H](C(=O)O)N3CCN(CC(=O)O)CCN(CC(=O)O)CC3)C(=O)N3CCC[C@H]3C(=O)N[C@@H](Cc3cccc4ccccc34)C(=O)N[C@H](CC(=O)O)C(=O)N2)C(=O)CCSC[C@@H](C(N)=O)NC(=O)[C@H](Cc2c[nH]c3ccccc23)NC(=O)[C@@H]2C[C@@H](O)CN2C(=O)[C@@H]2CCCN2C(=O)[C@H]([C@@H](C)O)NC(=O)[C@H](CO)NC(=O)[C@H](Cc2c[nH]c3ccccc23)NC(=O)[C@H](CC(=O)O)NC(=O)[C@H](CCCCNC(=N)N)NC1=O [[^64Cu]Cu-4, metal not drawn] (X1-CP[1Nal][dD]C[hSer](Me)[hArg]DWSTP[Hyp]WC-NH2; linker 1-5-15 via TATA) | – | – | half-life ([1]; distribution phase, read-out: Blood half life fast): 1.3 ± 0.17 min; half-life ([1]; elimination phase, read-out: Blood half life slow): 32 ± 2.09 min; half-life [2]: 412 min; Kd ([3]; human): > 600000 nM
2 | – | – | – | – | CSCC[C@@H]1NC(=O)[C@@H]2CSCCC(=O)N3CN(CN(C3)C(=O)CCSC[C@H](NC(=O)CC[C@H](C(=O)O)N3CCN(CC(=O)O)CCN(CC(=O)O)CC3)C(=O)N3CCC[C@H]3C(=O)N[C@@H](Cc3cccc4ccccc34)C(=O)N[C@H](CC(=O)O)C(=O)N2)C(=O)CCSC[C@@H](C(N)=O)NC(=O)[C@H](Cc2c[nH]c3ccccc23)NC(=O)[C@@H]2C[C@@H](O)CN2C(=O)[C@@H]2CCCN2C(=O)[C@H]([C@@H](C)O)NC(=O)[C@H](CO)NC(=O)[C@H](Cc2c[nH]c3ccccc23)NC(=O)[C@H](CC(=O)O)NC(=O)[C@H](CCCCNC(=N)N)NC1=O [[^64Cu]Cu-1e] [metal not drawn] | ≈ 6 min | negligible binding capability | Percent fast [%] [4]: 86.95 ±2.10%
3 | 1.11e+06 M⁻¹ s⁻¹ | 0.00278 s⁻¹ | 2.05 | 19.9 | CSCC[C@@H]1NC(=O)[C@@H]2CSCCC(=O)N3CN(CN(C3)C(=O)CCSC[C@H](NC(=O)CC[C@H](C(=O)O)N3CCN(CC(=O)O)CCN(CC(=O)O)CC3)C(=O)N3CCC[C@H]3C(=O)N[C@@H](Cc3cccc4ccccc34)C(=O)N[C@H](CC(=O)O)C(=O)N2)C(=O)CCSC[C@@H](C(N)=O)NC(=O)[C@H](Cc2c[nH]c3ccccc23)NC(=O)[C@@H]2C[C@@H](O)CN2C(=O)[C@@H]2CCCN2C(=O)[C@H]([C@@H](C)O)NC(=O)[C@H](CO)NC(=O)[C@H](Cc2c[nH]c3ccccc23)NC(=O)[C@H](CC(=O)O)NC(=O)[C@H](CCCNC(=N)N)NC1=O [compound 10] (X1-CP[1Nal][dD]CMRDWSTP[Hyp]WC-NH2; linker 1-5-15 via TATA) | – | – | –
4 | 680000 M⁻¹ s⁻¹ | 0.0433 s⁻¹ | 0.99 | 20.3 | CSCC[C@@H]1NC(=O)[C@@H]2CSCCC(=O)N3CN(CN(C3)C(=O)CCSC[C@H](NC(=O)CC[C@H](C(=O)O)N3CCN(CC(=O)O)CCN(CC(=O)O)CC3)C(=O)N3CCC[C@H]3C(=O)N[C@@H](Cc3ccc4ccccc4c3)C(=O)N[C@H](CC(=O)O)C(=O)N2)C(=O)CCSC[C@@H](C(N)=O)NC(=O)[C@H](Cc2c[nH]c3ccccc23)NC(=O)[C@@H]2C[C@@H](O)CN2C(=O)[C@@H]2CCCN2C(=O)[C@H]([C@@H](C)O)NC(=O)[C@H](CO)NC(=O)[C@H](Cc2c[nH]c3ccccc23)NC(=O)[C@H](CC(=O)O)NC(=O)[C@H](CCCNC(=N)N)NC1=O [8a] (X1-CP[2Nal][dD]CMRDWSTP[Hyp]WC-NH2; linker 1-5-15 via TATA) | – | – | logD ([8]; pH 7.4, logD 7.4): -2.48; fold lower binding affinity compared to 1e ([6]; FA K d ratio): 30 fold; Kd (HT-1376 cells): 51.7 nM
5 | – | – | – | – | COCC[C@@H]1NC(=O)[C@@H]2CSCCC(=O)N3CN(CN(C3)C(=O)CCSC[C@H](NC(=O)CC[C@H](C(=O)O)N3CCN(CC(=O)O)CCN(CC(=O)O)CC3)C(=O)N3CCC[C@H]3C(=O)N[C@@H](Cc3cccc4ccccc34)C(=O)N[C@H](CC(=O)O)C(=O)N2)C(=O)CCSC[C@@H](C(N)=O)NC(=O)[C@H](Cc2c[nH]c3ccccc23)NC(=O)[C@@H]2C[C@@H](O)CN2C(=O)[C@@H]2CCCN2C(=O)[C@H]([C@@H](C)O)NC(=O)[C@H](CO)NC(=O)[C@H](Cc2c[nH]c3ccccc23)NC(=O)[C@H](CC(=O)O)NC(=O)[C@H](CCCCNC(=N)N)NC1=O [[^64Cu]Cu-4] [metal not drawn] (X1-CP[1Nal][dD]C[hSer](Me)[hArg]DWSTP[Hyp]WC-NH2; linker 1-5-15 via TATA) | 12.5 min | negligible binding capability | body retention at 2 h p.i. [4]: 40–42%; logD 7.4 ([8]; pH 7.4): −2.76

Row | SMILES | kon [5] | koff [5] | Hill coefficient n [6] | CHI IAM7.4 [7] | time of highest tumor uptake [4] | binding to HSA or other plasma proteins [3] | also measured
6 | C[Se]CC[C@@H]1NC(=O)[C@@H]2CSCCC(=O)N3CN(CN(C3)C(=O)CCSC[C@H](NC(=O)CC[C@H](C(=O)O)N3CCN(CC(=O)O)CCN(CC(=O)O)CC3)C(=O)N3CCC[C@H]3C(=O)N[C@@H](Cc3cccc4ccccc34)C(=O)N[C@H](CC(=O)O)C(=O)N2)C(=O)CCSC[C@@H](C(N)=O)NC(=O)[C@H](Cc2c[nH]c3ccccc23)NC(=O)[C@@H]2C[C@@H](O)CN2C(=O)[C@@H]2CCCN2C(=O)[C@H]([C@@H](C)O)NC(=O)[C@H](CO)NC(=O)[C@H](Cc2c[nH]c3ccccc23)NC(=O)[C@H](CC(=O)O)NC(=O)[C@H](CCCCNC(=N)N)NC1=O [compound 5] (X1-CP[1Nal][dD]C[SeMet][hArg]DWSTP[Hyp]WC-NH2; linker 1-5-15 via TATA) | – | – | 1.69 | 19.5 | – | – | logD 7.4 ([8]; ^64Cu-labeled ligand, n-octanol/PBS pH 7.4, ±SD): –2.37 (±0.07)
